Key:
[1] = test system: Influenza A virus; experiment: Antiviral activity against Influenza A virus H1N1 infected in dog MDCK cells assessed as inhibition in virus-induced cytopathic effect incubated for 40 hrs; format: functional, organism-based
[2] = Selectivity index, ratio of TC50 for cytotoxicity against dog MDCK cells to IC50 for antiviral activity against Influenza A virus H1N1 infected in dog MDCK cells; format: toxicity, cell-based; conditions: read-out: Selectivity Index
[3] = test system: Influenza A virus H3N2; experiment: Antiviral activity against Influenza A virus H3N2 infected in dog MDCK cells assessed as inhibition in virus-induced cytopathic effect incubated for 40 hrs; format: functional, organism-based
[4] = test system: Influenza B virus; experiment: Antiviral activity against Influenza B virus infected in MDCK cells assessed as inhibition in virus-induced cytopathic effect incubated for 40 hrs; format: functional, organism-based
[5] = Cytotoxicity against MDCK cells assessed as reduction in cell viability incubated for 48 hrs; format: cell-based, Canis lupus familiaris; conditions: dog, read-out: TC50
[6] = Selectivity index, ratio of TC50 for cytotoxicity against dog MDCK cells to IC50 for antiviral activity against Influenza A virus H3N2 infected in dog MDCK cells; format: toxicity, cell-based; conditions: read-out: Selectivity Index
[7] = Selectivity index, ratio of TC50 for cytotoxicity against dog MDCK cells to IC50 for antiviral activity against Influenza B virus infected in dog MDCK cells; format: toxicity, cell-based; conditions: read-out: Selectivity Index

Structure (SMILES)	IC50 [1]	selectivity ratio [2]	IC50 [3]	IC50 [4]	CC50 at 48 h [5]	selectivity ratio [6]	selectivity ratio [7]
C=C(C(=O)OC)[C@@H]1CC[C@H](C)[C@@H]2CC(=O)C(C)=C2C1	72.7 µM	3	> 71.8 µM	> 71.1 µM	–	–	–
C=C(C(=O)NCc1ccc(B(O)O)cc1)[C@@H]1CC[C@H](C)[C@@H]2CC(=O)C(C)=C2C1	85.4 µM	3.3	65.9 µM	80 µM	262 µM	4	3.3
C=C(C(=O)Nc1ncc(B(O)O)cn1)[C@@H]1CC[C@H](C)[C@@H]2CC(=O)C(C)=C2C1	96 µM	3.3	87.4 µM	135 µM	315 µM	3.6	2.4
C=C(C(=O)Nc1ccc2c(c1)COB2O)[C@@H]1CC[C@H](C)[C@@H]2CC(=O)C(C)=C2C1	> 49.1 µM	–	> 49.1 µM	> 49.1 µM	254 µM	–	–
C=C(C(=O)NCc1cccc(B(O)O)c1)[C@@H]1CC[C@H](C)[C@@H]2CC(=O)C(C)=C2C1	43.3 µM	6	63.5 µM	90.3 µM	252 µM	4	2.8
C=C(C(=O)OC)[C@@H]1CC[C@H](C)[C@H]2C(=C(C)C(=O)[C@H]2NC(=O)C(C)CCl)C1 (some centres not stated)	> 422 µM	–	422 µM	> 422 µM	735 µM	1.7	–
C=C(C(=O)OC)[C@@H]1CC[C@H](C)[C@H]2C(=C(C)C(=O)[C@H]2NS(=O)(=O)c2ccc(F)cc2)C1	8.1 µM	3	10.2 µM	14.7 µM	25.1 µM	2.5	1.7
C=C(C(=O)OC)[C@@H]1CC[C@H](C)[C@H]2C(=C(C)C(=O)[C@H]2NS(C)(=O)=O)C1	40.5 µM	5.6	52.4 µM	40.3 µM	226 µM	4.3	5.6
C=C(C(=O)Nc1ccc(B(O)O)cc1)[C@@H]1CC[C@H](C)[C@@H]2CC(=O)C(C)=C2C1	> 452 µM	–	> 452 µM	> 451 µM	939 µM	–	–
C=C(C(=O)Nc1cccc(B(O)O)c1)[C@@H]1CC[C@H](C)[C@@H]2CC(=O)C(C)=C2C1	129 µM	4.9	146 µM	147 µM	632 µM	5.3	4.3
C=C(C(=O)OC)[C@@H]1CC[C@H](C)[C@H]2C(=C(C)C(=O)[C@H]2NC(=O)c2ccccc2)C1	38.4 µM	2.2	> 16.5 µM	43.8 µM	84.3 µM	–	1.9
C=C(C(=O)OC)[C@@H]1CC[C@H](C)[C@H]2C(=C(C)C(=O)[C@H]2NC(C)=O)C1	174 µM	4.9	> 175 µM	522 µM	753 µM	–	1.7
C=C(C(=O)OC)[C@@H]1CC[C@H](C)[C@H]2C(=C(C)C(=O)[C@H]2NC(=O)CNC(=O)c2ccccc2)C1	101 µM	4.9	> 114 µM	> 114 µM	488 µM	–	–
C=C(C(=O)OC)[C@@H]1CC[C@H](C)[C@H]2C(=C(C)C(=O)[C@H]2NC(=O)c2ccc(B(O)O)cc2)C1	44.6 µM	4.3	> 44.5 µM	> 44.2 µM	188 µM	–	–
C=C(C(=O)OC)[C@@H]1CC[C@H](C)[C@H]2C(=C(C)C(=O)[C@H]2NC(=O)CC#N)C1	485 µM	3	> 485 µM	484 µM	1450 µM	–	3
C=C(C(=O)OC)[C@@H]1CC[C@H](C)[C@H]2C(=C(C)C(=O)[C@H]2NS(=O)(=O)c2ccc(C)cc2)C1	14.5 µM	4.3	> 14.9 µM	14.1 µM	61.1 µM	–	4.3
CCOC(=O)C1=C[C@@H](OC(CC)CC)[C@H](NC(C)=O)[C@@H](N)C1 [OSELTAMIVIR]	15.6 µM	–	11.3 µM	> 488 µM	1410 µM	132	–
C=C(C(=O)O)[C@@H]1CC[C@H](C)[C@@H]2CC(=O)C(C)=C2C1 [PECHUELOIC ACID]	–	4.3	–	–	–	4.3	10
NC(=O)c1ncn([C@@H]2O[C@H](CO)[C@@H](O)[C@H]2O)n1 [RIBAVIRIN]	8.5 µM	363	10.6 µM	8 µM	–	476	714

Source: ChEMBL document CHEMBL4373726, “Novel amides modified rupestonic acid derivatives as anti-influenza virus reagents” (Bioorg Med Chem Lett, 2019)
